Results on two compounds are retold here after ChEMBL document CHEMBL4321812, “Structure-based rational design of staurosporine-based fluorescent probe with broad-ranging kinase affinity for kinase panel application” (Bioorg Med Chem Lett, 2019).

What is called pKd is −log10 of the Kd, conventionally taken in molar units.

pKd: −log10 of the molar value.

Test [1] addresses Mitogen-activated protein kinase kinase kinase kinase 1 (Homo sapiens, UniProt Q92918). Put plainly: Binding affinity to recombinant N-terminal His-FLAG-GST-tagged MAP4K1 (unknown origin) (1 to 346 residues) expressed in baculovirus infected Sf9 insect cells incubated for 1 hr by TR-FRET assay. A general note: In TR-FRET formats the signal depends on donor and acceptor labels being close together.

For another test, the target named is Myosin-IIIb (Homo sapiens, UniProt Q8WXR4). The test is described as follows: Binding affinity to recombinant full-length N-terminal His-FLAG-GST-tagged MYO3B (unknown origin) (1 to 362 residues) expressed in baculovirus infected Sf9 insect cells incubated for 1 hr by TR-FRET assay.
Test [2] deals with Mitogen-activated protein kinase kinase kinase kinase 2 (Homo sapiens, UniProt Q12851). Put plainly: Binding affinity to recombinant full-length N-terminal His-FLAG-GST-tagged MAP4K2 (unknown origin) expressed in baculovirus infected Sf9 insect cells incubated for 1 hr by TR-FRET assay.
The target of test [3] is Glycogen synthase kinase-3 alpha (Homo sapiens, UniProt P49840). The test is described as follows: Binding affinity to recombinant full-length N-terminal His-GST-tagged GSK3A (unknown origin) expressed in baculovirus infected Sf9 insect cells incubated for 1 hr by TR-FRET assay.
Test [4] concerns the target Serine/threonine-protein kinase 16 (Homo sapiens, UniProt O75716). Put plainly: Binding affinity to recombinant full-length N-terminal His-FLAG-GST-tagged STK16 (unknown origin) expressed in baculovirus infected Sf9 insect cells incubated for 1 hr by TR-FRET assay.
The target in test [5] is Serine/threonine-protein kinase N1 (Homo sapiens, UniProt Q16512). Put plainly: Binding affinity to recombinant full-length N-terminal His-FLAG-GST-tagged PKN1 (unknown origin) expressed in baculovirus infected Sf9 insect cells incubated for 1 hr by TR-FRET assay.
Test [6] concerns the target Serine/threonine-protein kinase PAK 6 (Homo sapiens, UniProt Q9NQU5). The test is described as follows: Binding affinity to recombinant human full-length N-terminal GST-tagged PAK6 expressed in baculovirus expression system using SGKtide as substrate incubated for 1 hr by TR-FRET assay.
For test [7], the target named is Dual specificity protein kinase CLK1 (Homo sapiens, UniProt P49759). The test is described as follows: Binding affinity to recombinant N-terminal His-FLAG-GST-tagged CLK1 (unknown origin) (129 to 484 residues) expressed in baculovirus infected Sf9 insect cells incubated for 1 hr by TR-FRET assay.
Test [8] addresses Mitogen-activated protein kinase 10 (Homo sapiens, UniProt P53779). The test is described as follows: Binding affinity to recombinant full-length N-terminal His-FLAG-GST-tagged MAPK10 (unknown origin) expressed in baculovirus infected Sf9 insect cells incubated for 1 hr by TR-FRET assay.
The target of test [9] is Homeodomain-interacting protein kinase 4 (Homo sapiens, UniProt Q8NE63). Put plainly: Binding affinity to recombinant full-length N-terminal His-FLAG-tagged HIPK4 (unknown origin) expressed in baculovirus infected Sf9 insect cells incubated for 1 hr by TR-FRET assay.
Another test deals with Myotonin-protein kinase (Homo sapiens, UniProt Q09013). Put plainly: Binding affinity to recombinant full-length N-terminal His-FLAG-GST-tagged DMPK (unknown origin) expressed in baculovirus infected Sf9 insect cells incubated for 1 hr by TR-FRET assay.
The target of test [10] is Mitogen-activated protein kinase kinase kinase 5 (Homo sapiens, UniProt Q99683). Put plainly: Binding affinity to recombinant full-length N-terminal His-FLAG-GST-tagged MAP3K5 (unknown origin) (654 to 971 residues) expressed in baculovirus infected Sf9 insect cells incubated for 1 hr by TR-FRET assay.
Test [11] deals with Dual specificity tyrosine-phosphorylation-regulated kinase 1B (Homo sapiens, UniProt Q9Y463). Put plainly: Binding affinity to recombinant full-length N-terminal His-FLAG-tagged DYRK1B (unknown origin) expressed in baculovirus infected Sf9 insect cells incubated for 1 hr by TR-FRET assay.
Test [12] addresses Mitogen-activated protein kinase kinase kinase 2 (Homo sapiens, UniProt Q9Y2U5). The test is described as follows: Binding affinity to recombinant full-length N-terminal His-FLAG-GST-tagged MAP3K2 (unknown origin) (337 to 620 residues) expressed in baculovirus infected Sf9 insect cells incubated for 1 hr by TR-FRET assay.
In test [13] the target is Calcium/calmodulin-dependent protein kinase type II subunit alpha (Homo sapiens, UniProt Q9UQM7). Put plainly: Binding affinity to recombinant human full-length N-terminal GST-tagged CAMK2A expressed in baculovirus expression system using GS peptide as substrate incubated for 1 hr in presence of calmodulin by TR-FRET assay.
Test [14] has as its target BMP-2-inducible protein kinase (Homo sapiens, UniProt Q9NSY1). Put plainly: Binding affinity to recombinant full-length N-terminal His-FLAG-GST-tagged BMP2K (unknown origin) expressed in baculovirus infected Sf9 insect cells incubated for 1 hr by TR-FRET assay.
The target of test [15] is Tyrosine-protein kinase ABL2 (Homo sapiens, UniProt P42684). The test is described as follows: Binding affinity to recombinant full-length N-terminal His-FLAG-GST-tagged ABL2 (unknown origin) (2 to 52 and 74 to 1182 residues) expressed in baculovirus infected Sf9 insect cells incubated for 1 hr by TR-FRET assay.
Test [16] deals with NUAK family SNF1-like kinase 2 (Homo sapiens, UniProt Q9H093). The test is described as follows: Binding affinity to recombinant full-length N-terminal His-FLAG-tagged NUAK2 (unknown origin) expressed in baculovirus infected Sf9 insect cells incubated for 1 hr by TR-FRET assay.
The target of test [17] is Vascular endothelial growth factor receptor 2 (Homo sapiens, UniProt P35968). The test is described as follows: Binding affinity to recombinant human full length N-terminal GST-tagged KDR (790 to 1356 residues) expressed in baculovirus expression system using CSKtide as substrate incubated for 1 hr by TR-FRET assay.
For test [18], the target named is Serine/threonine-protein kinase ULK1 (Homo sapiens, UniProt O75385). The test is described as follows: Binding affinity to recombinant N-terminal His-FLAG-GST-tagged ULK1 (unknown origin) (1 to 649 residues) expressed in baculovirus infected Sf9 insect cells incubated for 1 hr by TR-FRET assay.
Test [19] deals with Tyrosine-protein kinase Fer (Homo sapiens, UniProt P16591). The test is described as follows: Binding affinity to recombinant full-length N-terminal His-FLAG-GST-tagged FER (unknown origin) expressed in baculovirus infected Sf9 insect cells incubated for 1 hr by TR-FRET assay.
Test [20] concerns the target Tyrosine-protein kinase CSK (Homo sapiens, UniProt P41240). Put plainly: Binding affinity to recombinant full-length N-terminal His-FLAG-tagged CSK (unknown origin) expressed in baculovirus infected Sf9 insect cells incubated for 1 hr by TR-FRET assay.
For test [21], the target named is Cyclin-C/Cyclin-dependent kinase 19 (Homo sapiens, UniProt Q9BWU1). Put plainly: Binding affinity to recombinant human full length N-terminal GST-tagged CDK19 co-expressed with N-terminal GST-tagged CyclinC expressed in baculovirus expression system using RNA polymerase peptide as substrate incubated for 1 hr by TR-FRET assay.
For test [22], the target named is Mitogen-activated protein kinase 12 (Homo sapiens, UniProt P53778). Put plainly: Binding affinity to recombinant full-length N-terminal His-FLAG-GST-tagged MAPK12 (unknown origin) expressed in baculovirus infected Sf9 insect cells incubated for 1 hr by TR-FRET assay.
Sequence of Mitogen-activated protein kinase 12 (P53778 whole entry): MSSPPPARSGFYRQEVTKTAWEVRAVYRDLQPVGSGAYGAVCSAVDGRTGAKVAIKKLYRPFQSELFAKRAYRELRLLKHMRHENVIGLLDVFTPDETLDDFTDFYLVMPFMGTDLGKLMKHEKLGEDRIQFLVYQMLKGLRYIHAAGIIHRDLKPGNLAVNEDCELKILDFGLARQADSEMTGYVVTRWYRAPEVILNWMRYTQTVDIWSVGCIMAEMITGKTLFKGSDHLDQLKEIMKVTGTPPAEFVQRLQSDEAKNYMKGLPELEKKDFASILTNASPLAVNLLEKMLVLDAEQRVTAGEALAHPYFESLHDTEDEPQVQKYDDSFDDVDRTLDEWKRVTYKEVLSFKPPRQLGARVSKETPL

Sequence of BMP-2-inducible protein kinase (Q9NSY1 whole entry, the tested form may be a part): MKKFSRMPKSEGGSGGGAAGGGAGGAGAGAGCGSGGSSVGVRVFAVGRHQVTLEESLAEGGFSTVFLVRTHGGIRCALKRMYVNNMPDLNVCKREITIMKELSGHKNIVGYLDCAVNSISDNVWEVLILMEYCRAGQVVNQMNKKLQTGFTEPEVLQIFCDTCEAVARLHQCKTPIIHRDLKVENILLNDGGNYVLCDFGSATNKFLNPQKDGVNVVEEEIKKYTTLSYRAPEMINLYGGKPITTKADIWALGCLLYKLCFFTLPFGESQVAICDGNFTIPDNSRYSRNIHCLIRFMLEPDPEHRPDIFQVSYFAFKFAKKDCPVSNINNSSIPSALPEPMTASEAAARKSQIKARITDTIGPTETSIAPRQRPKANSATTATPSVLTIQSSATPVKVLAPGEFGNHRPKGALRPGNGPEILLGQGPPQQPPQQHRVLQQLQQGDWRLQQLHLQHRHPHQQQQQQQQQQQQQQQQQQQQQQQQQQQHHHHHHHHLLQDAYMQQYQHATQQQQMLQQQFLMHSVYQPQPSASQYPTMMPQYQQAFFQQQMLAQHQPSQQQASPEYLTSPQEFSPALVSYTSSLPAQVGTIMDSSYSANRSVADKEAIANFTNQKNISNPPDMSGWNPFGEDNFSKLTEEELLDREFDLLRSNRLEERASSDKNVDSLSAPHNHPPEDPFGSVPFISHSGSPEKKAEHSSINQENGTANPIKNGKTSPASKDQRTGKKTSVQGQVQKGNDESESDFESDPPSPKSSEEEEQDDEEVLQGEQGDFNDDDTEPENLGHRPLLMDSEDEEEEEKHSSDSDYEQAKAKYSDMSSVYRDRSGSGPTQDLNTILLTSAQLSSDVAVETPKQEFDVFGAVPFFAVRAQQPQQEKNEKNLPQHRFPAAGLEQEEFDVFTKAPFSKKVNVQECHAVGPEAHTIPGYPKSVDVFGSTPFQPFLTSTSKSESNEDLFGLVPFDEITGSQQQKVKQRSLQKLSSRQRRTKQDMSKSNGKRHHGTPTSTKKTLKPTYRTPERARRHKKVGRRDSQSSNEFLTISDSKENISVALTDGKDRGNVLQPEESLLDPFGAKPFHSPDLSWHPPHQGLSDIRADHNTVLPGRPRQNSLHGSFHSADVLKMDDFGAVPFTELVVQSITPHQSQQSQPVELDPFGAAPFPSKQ
Sequence of Serine/threonine-protein kinase PAK 6 (Q9NQU5 whole entry, the tested form may be a part): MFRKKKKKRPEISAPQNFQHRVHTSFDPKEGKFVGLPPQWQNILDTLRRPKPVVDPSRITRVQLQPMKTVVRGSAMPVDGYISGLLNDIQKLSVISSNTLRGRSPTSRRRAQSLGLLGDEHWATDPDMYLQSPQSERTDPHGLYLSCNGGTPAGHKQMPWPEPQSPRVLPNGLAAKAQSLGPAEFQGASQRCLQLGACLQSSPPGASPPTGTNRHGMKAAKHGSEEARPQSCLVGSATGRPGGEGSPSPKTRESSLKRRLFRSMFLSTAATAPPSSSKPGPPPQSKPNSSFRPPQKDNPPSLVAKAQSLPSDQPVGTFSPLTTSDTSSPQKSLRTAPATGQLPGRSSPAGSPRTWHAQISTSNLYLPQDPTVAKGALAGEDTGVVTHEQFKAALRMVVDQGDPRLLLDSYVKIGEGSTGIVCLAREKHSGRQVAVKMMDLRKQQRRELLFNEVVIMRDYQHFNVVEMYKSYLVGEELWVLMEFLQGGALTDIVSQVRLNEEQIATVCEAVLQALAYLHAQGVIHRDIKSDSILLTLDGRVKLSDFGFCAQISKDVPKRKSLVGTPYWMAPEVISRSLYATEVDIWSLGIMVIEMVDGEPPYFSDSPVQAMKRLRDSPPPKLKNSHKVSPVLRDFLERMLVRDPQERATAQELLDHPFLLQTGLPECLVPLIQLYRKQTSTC
Sequence of Serine/threonine-protein kinase N1 (Q16512 whole entry): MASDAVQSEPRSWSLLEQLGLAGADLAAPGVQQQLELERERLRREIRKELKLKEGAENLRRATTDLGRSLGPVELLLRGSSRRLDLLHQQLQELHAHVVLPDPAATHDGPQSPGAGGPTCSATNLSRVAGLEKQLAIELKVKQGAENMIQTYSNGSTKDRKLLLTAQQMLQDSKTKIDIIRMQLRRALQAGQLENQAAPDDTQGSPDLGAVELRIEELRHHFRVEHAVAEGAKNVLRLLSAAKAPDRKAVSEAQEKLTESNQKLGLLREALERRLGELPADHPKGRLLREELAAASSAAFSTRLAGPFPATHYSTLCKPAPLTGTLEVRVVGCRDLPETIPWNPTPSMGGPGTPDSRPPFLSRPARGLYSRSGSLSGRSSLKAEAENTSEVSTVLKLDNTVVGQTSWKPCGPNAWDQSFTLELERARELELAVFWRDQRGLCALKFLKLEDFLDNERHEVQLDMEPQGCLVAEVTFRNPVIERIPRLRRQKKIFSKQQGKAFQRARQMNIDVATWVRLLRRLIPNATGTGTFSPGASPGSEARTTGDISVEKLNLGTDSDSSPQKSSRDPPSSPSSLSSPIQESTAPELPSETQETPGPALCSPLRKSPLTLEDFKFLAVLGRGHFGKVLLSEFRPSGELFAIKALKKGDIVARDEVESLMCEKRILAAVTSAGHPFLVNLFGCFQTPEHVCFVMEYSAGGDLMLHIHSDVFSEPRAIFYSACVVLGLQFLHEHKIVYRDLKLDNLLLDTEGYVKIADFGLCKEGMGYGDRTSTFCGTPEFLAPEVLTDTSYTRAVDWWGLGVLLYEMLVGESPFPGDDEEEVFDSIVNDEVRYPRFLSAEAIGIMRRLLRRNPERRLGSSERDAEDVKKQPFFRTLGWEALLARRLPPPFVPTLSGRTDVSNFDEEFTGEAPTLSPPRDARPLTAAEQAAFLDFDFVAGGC
Sequence of Dual specificity tyrosine-phosphorylation-regulated kinase 1B (Q9Y463 whole entry, the tested form may be a part): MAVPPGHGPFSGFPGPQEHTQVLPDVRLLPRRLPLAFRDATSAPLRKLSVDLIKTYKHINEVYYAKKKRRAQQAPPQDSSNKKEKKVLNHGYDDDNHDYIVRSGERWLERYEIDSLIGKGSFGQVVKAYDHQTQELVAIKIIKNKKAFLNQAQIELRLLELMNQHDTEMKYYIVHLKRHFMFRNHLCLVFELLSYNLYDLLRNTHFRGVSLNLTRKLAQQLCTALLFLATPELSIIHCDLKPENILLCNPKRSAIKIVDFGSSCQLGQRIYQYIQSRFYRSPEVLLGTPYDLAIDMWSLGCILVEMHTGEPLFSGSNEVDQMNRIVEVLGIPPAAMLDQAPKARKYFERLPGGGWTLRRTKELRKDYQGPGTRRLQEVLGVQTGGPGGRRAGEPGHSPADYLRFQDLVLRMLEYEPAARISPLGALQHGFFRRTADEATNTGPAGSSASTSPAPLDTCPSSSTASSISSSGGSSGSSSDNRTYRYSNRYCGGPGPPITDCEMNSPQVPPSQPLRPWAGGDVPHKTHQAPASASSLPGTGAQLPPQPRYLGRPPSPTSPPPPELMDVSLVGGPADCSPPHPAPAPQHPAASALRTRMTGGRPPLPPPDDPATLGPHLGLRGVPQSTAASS
Sequence of Mitogen-activated protein kinase kinase kinase kinase 2 (Q12851 whole entry): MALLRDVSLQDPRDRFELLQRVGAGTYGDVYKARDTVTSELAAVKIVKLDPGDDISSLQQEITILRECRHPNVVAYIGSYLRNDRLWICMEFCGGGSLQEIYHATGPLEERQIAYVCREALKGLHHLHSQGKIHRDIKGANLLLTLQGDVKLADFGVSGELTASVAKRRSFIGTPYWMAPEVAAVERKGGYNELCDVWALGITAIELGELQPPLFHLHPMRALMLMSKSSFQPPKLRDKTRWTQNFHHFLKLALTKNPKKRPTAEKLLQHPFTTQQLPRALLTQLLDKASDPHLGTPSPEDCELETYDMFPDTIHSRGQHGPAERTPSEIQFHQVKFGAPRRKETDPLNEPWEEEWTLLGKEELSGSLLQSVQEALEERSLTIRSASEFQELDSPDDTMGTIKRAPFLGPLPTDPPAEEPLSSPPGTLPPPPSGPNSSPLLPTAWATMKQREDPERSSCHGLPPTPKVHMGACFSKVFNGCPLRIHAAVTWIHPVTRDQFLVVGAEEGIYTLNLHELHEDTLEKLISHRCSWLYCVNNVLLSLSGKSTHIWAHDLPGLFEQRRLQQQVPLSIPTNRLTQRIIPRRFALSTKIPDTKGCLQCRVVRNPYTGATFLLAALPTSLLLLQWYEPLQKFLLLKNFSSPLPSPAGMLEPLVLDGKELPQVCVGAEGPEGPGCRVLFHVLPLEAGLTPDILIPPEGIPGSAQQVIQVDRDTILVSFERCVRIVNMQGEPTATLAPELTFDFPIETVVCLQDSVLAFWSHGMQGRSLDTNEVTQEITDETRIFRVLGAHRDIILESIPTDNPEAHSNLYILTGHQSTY
Sequence of Serine/threonine-protein kinase 16 (O75716 whole entry): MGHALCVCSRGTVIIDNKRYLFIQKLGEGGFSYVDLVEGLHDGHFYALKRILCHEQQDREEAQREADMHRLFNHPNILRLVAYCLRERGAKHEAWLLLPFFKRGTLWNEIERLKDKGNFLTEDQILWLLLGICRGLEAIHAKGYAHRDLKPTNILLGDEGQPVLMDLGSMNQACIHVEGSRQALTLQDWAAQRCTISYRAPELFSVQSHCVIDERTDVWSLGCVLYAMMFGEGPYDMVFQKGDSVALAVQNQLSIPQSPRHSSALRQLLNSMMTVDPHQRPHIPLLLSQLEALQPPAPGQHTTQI

Regarding `CO[C@@H]1[C@H](NCCOCCOCCOCCNC(=O)CCC2=[N+]3C(=Cc4c(C)cc(C)n4[B-]3(F)F)C=C2)C[C@H]2O[C@]1(C)n1c3ccccc3c3c4c(c5c6ccccc6n2c5c31)C(=O)NC4`, the pKd in test [1] was 7.77; at Myosin-IIIb, 6.48; in test [2], 8.22; in [3], 6.48; in test [4] it was 6.44; in [5], 7.96. The pKd in [6] is 7.66; in test [7], 7.03; in test [8], 6.50; in [9], 6.37; at Myotonin-protein kinase it was 7.05; in test [10], 6.87. The pKd in test [11] was 6.97; in test [12], 7.42; in test [13], 7.82; in test [14] it was 7.62; in test [15], 6.27; in test [16] it was 8.00. Further, the pKd is 6.71 in test [17]; 6.87 in test [18]; 7.57 in [19]; 6.06 in test [20]; 6.59 in test [21]; 6.02 in test [22].
In the case of `CO[C@@H]1[C@H](N(C)CCOCCOCCOCCNC(=O)CCC2=[N+]3C(=Cc4c(C)cc(C)n4[B-]3(F)F)C=C2)C[C@H]2O[C@]1(C)n1c3ccccc3c3c4c(c5c6ccccc6n2c5c31)C(=O)NC4`, the pKd in test [1] was 7.62; at Myosin-IIIb, 6.53; in test [2] it was 8.15; in [3], 6.67; in [4] it was 6.96; in test [5], 8.22. Moreover, the negative logarithm of the Kd (pKd) was 7.60 in test [6]; 6.90 in test [7]; 6.61 in test [8]; 6.33 in test [9]; 7.03 on Myotonin-protein kinase; 6.61 in test [10]. The pKd in test [11] is 7.40; in [12], 7.28; in test [13], 8.05; in test [14] it was 7.72; in [15], 6.02; in test [16], 7.96. Besides, the pKd was 6.87 in test [17]; 6.51 in test [18]; 7.52 in [19]; 5.99 in [20]; 6.90 in test [21]; 5.99 in test [22].
